From patent US20260008783A1, “MODULATORS OF FSHR AND USES THEREOF” (Celmatix Inc., priority 2022, published 2026)

Target: T1, Follicle Stimulating Hormone Receptor (FSHR) (Homo sapiens, UniProt P23945)
T1 construct: HA (N); expressed in transfected cells; host or cells: CHO-K1, transient transfection, pHM6 vector (CMV promoter)
T1 sequence (P23945 18-695): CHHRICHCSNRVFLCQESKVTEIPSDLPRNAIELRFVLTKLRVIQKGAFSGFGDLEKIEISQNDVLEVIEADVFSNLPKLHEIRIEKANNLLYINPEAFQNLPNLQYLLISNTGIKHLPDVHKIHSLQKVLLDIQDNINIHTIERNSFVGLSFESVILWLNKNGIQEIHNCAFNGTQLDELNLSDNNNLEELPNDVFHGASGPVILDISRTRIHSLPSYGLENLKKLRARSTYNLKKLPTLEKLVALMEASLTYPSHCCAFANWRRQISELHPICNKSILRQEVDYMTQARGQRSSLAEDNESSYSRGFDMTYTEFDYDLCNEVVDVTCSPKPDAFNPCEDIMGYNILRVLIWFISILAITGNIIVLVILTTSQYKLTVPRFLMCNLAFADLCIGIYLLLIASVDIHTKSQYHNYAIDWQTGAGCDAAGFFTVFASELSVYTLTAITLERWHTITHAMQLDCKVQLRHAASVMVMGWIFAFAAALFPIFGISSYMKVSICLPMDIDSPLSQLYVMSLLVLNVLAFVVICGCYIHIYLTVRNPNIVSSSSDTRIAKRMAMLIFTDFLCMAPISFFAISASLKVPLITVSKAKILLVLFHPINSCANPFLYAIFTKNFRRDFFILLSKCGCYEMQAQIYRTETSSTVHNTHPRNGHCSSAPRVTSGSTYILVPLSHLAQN
Assay: HTRF cAMP agonist assay, FSHR, transiently transfected CHO-K1 cells
Format: cell-based
Details: CHO-K1 cells transiently expressing human FSHR, read-out: IC50 FSHR LANCE CAMP

Compound	IC50
COc1cc2c(cc1-c1cncc(C(N)=O)c1)-c1c(c(C(=O)N3CCCC(=O)C3(C)C)nn1-c1cc(Cl)cc(Cl)c1)CC2 [Compound 8-67, 5-(1-(3,5-dichlorophenyl)-3-(2,2-dimethyl-3-oxopiperidine-1-carbonyl)-7-methoxy-4,5-dihydro-1H-benzo[g]indazol-8-yl)nicotinamide]	0.00424 µM
COc1cc2c(cc1-c1cncc(C(N)=O)c1)-c1c(c(C(=O)N3CCNC(=O)C3(C)C)nn1-c1cccnn1)CC2 [Compound 15-06]	3.62 µM
COc1cc2c(cc1-c1cncc(C(N)=O)c1)-c1c(c(C(=O)N3[C@H](C)CNC[C@@H]3C)nn1-c1cc(Cl)cc(Cl)c1)OC2 [Compound 12-02, 5-[1-(3,5-dichlorophenyl)-3-[(2R,6S)-2,6-dimethylpiperazine-1-carbonyl]-7-methoxy-5H-isochromeno[4,3-c]pyrazol-8-yl]pyridine-3-carboxamide]	0.00507 µM
COc1cc2c(cc1-c1cncc(C(N)=O)c1)-c1c(c(C(=O)N3CCOCC3(C)C)nn1C1CCCCC1)CC2 [Compound 9-16]	0.0941 µM
COc1cc2c(cc1-c1cncc(C(N)=O)c1)-c1c(c(C(=O)N3CCNC(=O)C3(C)C)nn1CC(C)C)CC2 [Compound 14-03]	13.8 µM
COc1cc2c(cc1-c1cncc(C(N)=O)c1)-c1c(c(C(=O)N3CCOCC3(C)C)nn1-c1cc(Cl)cc(Cl)c1)C2 [Compound 5-01, 5-[1-(3,5-dichlorophenyl)-3-(3,3-dimethylmorpholine-4-carbonyl)-6-methoxy-4H-indeno[1,2-c]pyrazol-7-yl]pyridine-3-carboxamide]	0.0148 µM
COc1cc2c(cc1-c1cccnc1)-c1c(c(C(=O)N3CCNC(=O)C3(C)C)nn1-c1cc(Cl)cc(Cl)c1)CC2 [Compound 15-03, 4-[1-(3,5-dichlorophenyl)-7-methoxy-8-(3-pyridyl)-4,5-dihydrobenzo[g]indazole-3-carbonyl]-3,3-dimethyl-piperazin-2-one]	0.0311 µM
COc1cc2c(cc1-c1cncc(C(N)=O)c1)-c1c(c(C(=O)N(C)C(C)(C)C)nn1-c1ccsc1)OC2 [Compound 2-04]	0.00792 µM
COc1cc(C(N)=O)cc(-c2cc3c(cc2OC)CSc2c(C(=O)N(C)C(C)(C)C)nn(-c4cc(Cl)cc(Cl)c4)c2-3)n1 [Compound 11-03, N-tert-butyl-8-(4-carbamoyl-6-methoxy-2-pyridyl)-1-(3,5-dichlorophenyl)-7-methoxy-N-methyl-5H-isothiochromeno[4,3-c]pyrazole-3-carboxamide]	0.075 µM
COc1cc2c(cc1-c1cncc(C(N)=O)c1)-c1c(c(C(=O)N3[C@H](C)CN(C)C[C@@H]3C)nn1-c1cc(Cl)cc(Cl)c1)CC2 [Compound 12-01]	0.0148 µM
CCCCn1nc(C(=O)N2CCOCC2(C)C)c2c1-c1cc(-c3cncc(C(N)=O)c3)c(OC)cc1CC2 [Compound 9-15, 5-[1-butyl-3-(3,3-dimethylmorpholine-4-carbonyl)-7-methoxy-4,5-dihydrobenzo[g]indazol-8-yl]pyridine-3-carboxamide]	0.042 µM
COc1cc2c(cc1-c1cncc(C(N)=O)c1)-c1c(c(C(=O)N(C)C(C)C)nn1-c1cc(Cl)cc(Cl)c1)CC2 [Compound 8-36]	0.00417 µM
COc1cc2c(cc1-c1cncc(C(N)=O)c1)-c1c(c(C(=O)N3CCNC(=O)C3(C)C)nn1-c1cc(Cl)cc(Cl)c1)CC2 [Compound 8-26b]	0.0203 µM
CCN(C)C(=O)c1nn(-c2cc(Cl)cc(Cl)c2)c2c1CCc1cc(OC)c(-c3cncc(C(N)=O)c3)cc1-2 [Compound 8-34]	0.0134 µM
COc1cc2c(cc1-c1cncc(C(N)=O)c1)-c1c(c(C(=O)N3CCOCC3(C)C)nn1-c1ccncn1)CC2 [Compound 10-10]	0.0148 µM
COc1cc2c(cc1-c1cncc(C(N)=O)c1)-c1c(c(C(=O)N3COCC3(C)C)nn1-c1cc(Cl)cc(Cl)c1)CC2 [Compound 8-32]	0.000825 µM
COc1cc2c(cc1-c1cncc(C(N)=O)c1)-c1c(c(C(=O)N3COCC3(C)C)nn1-c1cc(Cl)cc(Cl)c1)SC2 [Compound 12-15]	0.00309 µM
COc1cc2c(cc1-c1cncc(C(N)=O)c1)-c1c(c(C(=O)N(C)C)nn1-c1cc(Cl)cc(Cl)c1)CC2 [Compound 9-05]	0.0452 µM
COc1cc2c(cc1-c1cncc(C(N)=O)c1)-c1c(c(C(=O)N3CCNC[C@H]3C(C)C)nn1-c1cc(Cl)cc(Cl)c1)CC2 [Compound 8-25]	0.0718 µM

Compound	IC50
COc1cc2ccc3c(C(=O)N(C)C(C)(C)C)nn(-c4cc(Cl)cc(Cl)c4)c3c2cc1-c1ccn(C)n1 [Compound 6-08, N-tert-butyl-1-(3,5-dichlorophenyl)-7-methoxy-N-methyl-8-(1-methylpyrazol-3-yl)benzo[g]indazole-3-carboxamide]	0.0784 µM
COc1cc2c(cc1-c1cncc(C(N)=O)c1)-c1c(c(C(=O)N3[C@H](C)CNC[C@@H]3C)nn1-c1cc(Cl)cc(Cl)c1)SC2 [Compound 12-13]	0.00498 µM
COC(=O)c1cc(OC)nc(-c2cc3c(cc2OC)CCc2c(C(=O)N(C)C(C)(C)C)nn(-c4cc(Cl)cc(Cl)c4)c2-3)c1 [Compound 11-01A, methyl2-[3-[tert-butyl(methyl)carbamoyl]-1-(3,5-dichlorophenyl)-7-methoxy-4,5-dihydrobenzo[g]indazol-8-yl]-6-methoxy-pyridine-4-carboxylate]	0.0501 µM
COc1cc2c(cc1-c1cncc(C(N)=O)c1)-c1c(c(C(=O)N3CCC4C3CCN4C)nn1-c1cc(Cl)cc(Cl)c1)CC2 (centres unmarked) [Compound 8-31]	1.76 µM
COc1ccc2c(c1)CCc1c(C(=O)N3CCOCC3(C)C)nn(-c3cc(Cl)cc(Cl)c3)c1-2 [Compound 9-08A]	2.48 µM
COc1cc2c(cc1-c1ccn(C)n1)-c1c(c(C(=O)N3CCOCC3(C)C)nn1-c1ccsc1)OC2 [Compound 2-07]	2.41 µM
COc1cc2c(cc1-c1cncc(C(N)=O)c1)-c1c(c(C(=O)N3CCN(CCN)C(=O)C3(C)C)nn1-c1cc(Cl)cc(Cl)c1)CC2 [Compound 8-71]	3.73 µM
COc1cc2ccc3c(C(=O)N4CCOCC4(C)C)nn(-c4cc(Cl)cc(Cl)c4)c3c2cc1-c1ccn(C)n1 [Compound 6-07, [1-(3,5-dichlorophenyl)-7-methoxy-8-(1-methylpyrazol-3-yl)benzo[g]indazol-3-yl]-(3,3-dimethylmorpholin-4-yl)methanone]	0.0832 µM
COc1cc2c(cc1-c1cncc(C(N)=O)c1)-c1c(c(C(=O)N3CCCC34COC4)nn1-c1cc(Cl)cc(Cl)c1)CC2 [Compound 8-27]	0.03 µM
COc1cc2c(cc1-c1cncc(C(N)=O)c1)-c1c(c(C(=O)N3CCNC(=O)C3)nn1-c1cc(Cl)cc(Cl)c1)CC2 [Compound 8-82]	0.0798 µM
COc1cc2c(cc1-c1cncc(C(N)=O)c1)-c1c(c(C(=O)N3CCNC(=O)C34CC4)nn1-c1cc(Cl)cc(Cl)c1)CC2 [Compound 8-89]	0.0189 µM
COc1cc2c(cc1-c1cncc(C(N)=O)c1)-c1c(c(C(=O)N3CC4CC3CN4C(=O)OC(C)(C)C)nn1-c1cc(Cl)cc(Cl)c1)CC2 (centres unmarked) [Compound 8-33A]	0.105 µM
CCCn1nc(C(=O)N2CCOCC2(C)C)c2c1-c1cc(-c3cncc(C(N)=O)c3)c(OC)cc1CC2 [Compound 9-13, 5-[3-(3,3-dimethylmorpholine-4-carbonyl)-7-methoxy-1-propyl-4,5-dihydrobenzo[g]indazol-8-yl]pyridine-3-carboxamide]	0.0924 µM
COc1cc2c(cc1-c1cncc(C(N)=O)c1)-c1c(c(C(=O)N(CC(F)(F)F)CC(F)(F)F)nn1-c1cc(Cl)cc(Cl)c1)CC2 [Compound 8-56]	0.0613 µM
COc1cc(C(N)=O)cc(-c2cc3c(cc2OC)CCc2c(C(=O)N(C)C(C)(C)C)nn(-c4cc(Cl)cc(Cl)c4)c2-3)n1 [Compound 11-01]	0.0125 µM
COc1cc2c(cc1-c1cncc(C(N)=O)c1)-c1c(c(C(=O)N3CC4CC(C3)N4)nn1-c1cc(Cl)cc(Cl)c1)CC2 [Compound 8-74, 5-(3-(3,6-diazabicyclo[3.1.1]heptane-3-carbonyl)-1-(3,5-dichlorophenyl)-7-methoxy-4,5-dihydro-1H-benzo[g]indazol-8-yl)nicotinamide]	0.453 µM
COc1cc2c(cc1-c1cncc(C(N)=O)c1)-c1c(c(C(=O)N(C)C3CCCC3)nn1-c1cc(Cl)cc(Cl)c1)CC2 [Compound 8-47]	0.0293 µM
COc1cc2c(cc1-c1cncc(C(N)=O)c1)-c1c(c(C(=O)N3CCCNCC3)nn1-c1cc(Cl)cc(Cl)c1)CC2 [Compound 8-03, 5-[3-(1,4-diazepane-1-carbonyl)-1-(3,5-dichlorophenyl)-7-methoxy-4,5-dihydrobenzo[g]indazol-8-yl]pyridine-3-carboxamide]	0.449 µM
COc1cc2c(cc1-c1cncc(C(N)=O)c1)-c1c(c(C(=O)N3CCCNCC3(C)C)nn1-c1cc(Cl)cc(Cl)c1)CC2 [Compound 8-04, 5-[1-(3,5-dichlorophenyl)-3-(2,2-dimethyl-1,4-diazepane-1-carbonyl)-7-methoxy-4,5-dihydrobenzo[g]indazol-8-yl]pyridine-3-carboxamide]	0.0283 µM
